Results: ChEMBL document CHEMBL1132019, “RNA-aminoglycoside antibiotic interactions: fluorescence detection of binding and conformational change” (Bioorg Med Chem Lett, 1999)

Legend:
[1] = Compound was tested for inhibition against hammer head ribozyme complex (HH16-F)
[2] = Compound was evaluated for the apparent first-order binding constant (K) at a concentration of 90 uM to 5 mM
[3] = Compound was evaluated for the apparent second-order binding constant (K) at a concentration of 90 uM to 5 mM

Ki [1]: 13.5 µM | K [2]: 4 M⁻¹ | K [3]: 8 M-2
SMILES: NC[C@@H]1O[C@H](O[C@H]2[C@@H](O)[C@H](O[C@@H]3[C@@H](O)[C@H](N)C[C@H](N)[C@H]3O[C@H]3O[C@H](CN)[C@@H](O)[C@H](O)[C@H]3N)O[C@@H]2CO)[C@H](N)[C@@H](O)[C@@H]1O [FRAMYCETIN]
